From US20240199612A1, “IMIDAZOPYRIDINYL INHIBITORS OF PLASMA KALLIKREIN” (SHIRE HUMAN GENETIC THERAPIES, INC., priority 2021, published 2024)
pEC50: −log10 of the molar value.

Columns and labels:
[1] = molecular target: T1, plasma kallikrein (Homo sapiens, UniProt P03952); test: Neat human plasma assay (contact pathway-activated plasma, FXIIa, PFR-AMC substrate); format: biochemical; conditions: sodium citrate human plasma, 78% final plasma, 10 nM human FXIIa, 100 μM PFR-AMC, room temperature
T1 construct: from tissue; host or cells: sodium citrate collected human plasma (78% final)
T1 sequence (P03952 391-638 limits assumed): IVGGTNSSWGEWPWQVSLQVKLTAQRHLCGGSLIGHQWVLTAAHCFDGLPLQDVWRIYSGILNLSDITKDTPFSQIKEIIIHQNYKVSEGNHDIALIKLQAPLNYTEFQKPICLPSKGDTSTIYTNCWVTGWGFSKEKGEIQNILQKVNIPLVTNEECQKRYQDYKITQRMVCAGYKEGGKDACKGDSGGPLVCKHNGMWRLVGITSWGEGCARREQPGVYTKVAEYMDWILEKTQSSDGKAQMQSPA
T1 sequence (P03952 20-390 partner limits assumed): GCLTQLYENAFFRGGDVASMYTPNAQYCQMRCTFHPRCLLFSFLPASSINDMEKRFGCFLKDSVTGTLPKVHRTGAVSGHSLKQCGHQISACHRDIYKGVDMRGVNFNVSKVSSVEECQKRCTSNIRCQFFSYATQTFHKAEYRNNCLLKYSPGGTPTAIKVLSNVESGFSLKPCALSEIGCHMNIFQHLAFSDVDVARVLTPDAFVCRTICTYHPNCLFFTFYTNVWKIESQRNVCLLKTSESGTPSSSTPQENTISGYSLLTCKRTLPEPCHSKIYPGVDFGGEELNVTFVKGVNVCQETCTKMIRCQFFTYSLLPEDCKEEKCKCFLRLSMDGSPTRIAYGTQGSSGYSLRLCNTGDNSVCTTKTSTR
Description: Neat Human and Rat Plasma Assay
To analyze inhibition of plasma kallikrein in an ex vivo setting, the potency of compounds was measure in contact pathway-activated plasma assays. In a fluorogenic peptide substrate assay, test compounds dissolved in DMSO were added to sodium citrate collected human or rat plasma in a 96-well microplate. Alternatively, citrated plasma was collected from rats administered the compounds orally or by IV. 10 nM of human FXIIa (Enzyme Research Laboratories) diluted in PKa buffer (20 mM Tris-HCl, pH 7.5, 150 mM NaCl, 1 mM EDTA, 0.1% PEG-8000, and 0.1% Triton X-100) was added to the plasma, followed by the 100 μM of the profluorescent, synthetic plasma kallikrein substrate PFR-AMC (also diluted in PKa buffer). Final plasma concentration in the reaction was 78%. Fluorescence was immediately monitored by excitation/emission wavelengths of 360 nm/480 nm respectively over a period of 5 minutes in a microplate reader. The resulting linear increase in fluorescence emission (reflecting PKa proteolysis of PFR-AMC substrate) was fit to extract a proteolytic rate (fluorescent units over time), and this rate was subsequently plotted against compound inhibitor concentration. Resulting plots were fit to a standard 4-parameter IC50/IC90 equation to determine min/max values, IC50/90, and slope. All experimental steps were performed at room temperature.

[2] = molecular target: human activated kallikrein enzyme (Homo sapiens, UniProt P03952); test: Inhibition of human activated plasma kallikrein, fluorogenic peptide substrate (PFR-AMC) assay, 500 pM enzyme format; format: biochemical; conditions: format with 500 pM activated kallikrein, 300 uM PFR-AMC, 30 min preincubation, 10 min reaction, room temperature; read-out: Primary Dose Response Assay: Average EC50
Sequence of human activated kallikrein enzyme (P03952 391-638 limits assumed): as the sequence (P03952 391-638 limits assumed) above
Sequence of human activated kallikrein enzyme (P03952 20-390 partner limits assumed): as the sequence (P03952 20-390 partner limits assumed) above
Description: Inhibitory Activity of Exemplary Compounds against Plasma Kallikrein.
Compounds were evaluated for inhibition of the human activated kallikrein enzyme in two formats of an assay employing a fluorogenic peptide substrate. In one assay format, the concentrations of reagents were as follows: 20 mM Tris pH 7.5, 1 mM EDTA, 150 mM sodium chloride, 0.1% PEG-400, 0.1% Triton X-100, 500 pM activated kallikrein enzyme, 300 uM Pro-Phe-Arg-7-amido-4-methylcoumarin (PFR-AMC) substrate. Prior to reaction initiation with substrate, enzyme and inhibitors were preincubated for 30 min at room temperature. After initiation with substrate, reactions were incubated for 10 min at room temperature and fluorescence emission at 460 nm from 380 nm excitation measured with a microplate reader. In another assay format, the concentrations of reagents were as follows: 20 mM Tris pH 7.5, 1 mM EDTA, 150 mM sodium chloride, 0.1% PEG-400, 0.1% Triton X-100, 5 pM activated kallikrein enzyme, 300 uM PFR-AMC substrate. Prior to reaction initiation with substrate, enzyme and inhibitors were preincubated for 30 min at room temperature. After initiation with substrate, reactions were incubated for 18 hr at room temperature and fluorescence emission at 460 nm from 380 nm excitation measured with a microplate reader.

| SMILES | IC90 [1] [nM] | pEC50 [2] |
| --- | --- | --- |
| O=C(Nc1cc(NCc2cn3cc(C4CC4)ccc3n2)ccn1)OCc1cc(Cl)ccc1-n1cnnn1 [Compound I-11, 5-chloro-2-(1H-tetrazol-1-yl)benzyl (4-(((6-cyclopropylimidazo[1,2-a]pyridin-2-yl)methyl)amino)pyridin-2-yl)carbamate] | 2500 to 7500 | > 8.30 |
| O=C(Nc1cc(NCc2cn3cc(C4CC4)ccc3n2)ccn1)OCc1cccc(Cl)c1 [Compound I-13, 3-chlorobenzyl (4-(((6-cyclopropylimidazo[1,2-a]pyridin-2-yl)methyl)amino)pyridin-2-yl)carbamate] | 7500 to 15000 | > 8.30 |
| O=C(NCc1cc(Cl)ccc1-n1cnnn1)Nc1cc(NCc2cn3cc(C4CC4)ccc3n2)ccn1 [Compound I-10, 1-(5-chloro-2-(1H-tetrazol-1-yl)benzyl)-3-(4-(((6-cyclopropylimidazo[1,2-a]pyridin-2-yl)methyl)amino)pyridin-2-yl)urea] | 2500 to 7500 | > 8.30 |
| CC(OC(=O)Nc1cc(NCc2cn3cc(C4CC4)ccc3n2)ccn1)c1cccc(Cl)c1 (stereo not drawn) [Compound I-15, 1-(3-chlorophenyl)ethyl (4-(((6-cyclopropylimidazo[1,2-a]pyridin-2-yl)methyl)amino)pyridin-2-yl)carbamate] | 2500 to 7500 | > 8.30 |

More lines, now with the values ahead:

| IC90 [1] [nM] | pEC50 [2] | SMILES |
| --- | --- | --- |
| 7500 to 15000 | > 8.30 | O=C(Nc1cc(OCc2cn3cc(C4CC4)ccc3n2)ccn1)OCc1cc(Cl)ccc1-n1cnnn1 [Compound I-12, 5-chloro-2-(1H-tetrazol-1-yl)benzyl (4-((6-cyclopropylimidazo[1,2-a]pyridin-2-yl)methoxy)pyridin-2-yl)carbamate] |
| 2500 to 7500 | > 8.30 | CC(OC(=O)Nc1cc(NCc2cn3cc(C4CC4)ccc3n2)ccn1)c1cc(Cl)ccc1-n1cnnn1 (stereo not drawn) [Compound I-21, 1-(5-chloro-2-(1H-tetrazol-1-yl)phenyl)ethyl (4-(((6-cyclopropylimidazo[1,2-a]pyridin-2-yl)methyl)amino)pyridin-2-yl)carbamate] |
| ≤ 2500 | > 8.30 | O=C(Nc1cc(N2C[C@@H](O)C[C@@H]2c2cn3cc(C4CC4)ccc3n2)ncn1)OCc1cc(Cl)ccn1 [Compound I-28, (4-chloropyridin-2-yl)methyl (6-((2R,4S)-2-(6-cyclopropylimidazo[1,2-a]pyridin-2-yl)-4-hydroxypyrrolidin-1-yl)pyrimidin-4-yl)carbamate] |
| ≤ 2500 | > 8.30 | O=C(Nc1cc(NCc2cn3cc(C4CC4)ccc3n2)ncn1)OCc1cc(Cl)ccn1 [Compound I-26, (4-chloropyridin-2-yl)methyl (6-(((6-cyclopropylimidazo[1,2-a]pyridin-2-yl)methyl)amino)pyrimidin-4-yl)carbamate] |
| ≤ 2500 | > 8.30 | O=C(Nc1cc(NCc2cn3cc(C4CC4)ccc3n2)ncn1)OCc1cc(Cl)ccc1-n1cnnn1 [Compound I-8, 5-chloro-2-(1H-tetrazol-1-yl)benzyl (6-(((6-cyclopropylimidazo[1,2-a]pyridin-2-yl)methyl)amino)pyrimidin-4-yl)carbamate] |
